Patent publication US20130040882A1, “USE OF FIBROBLAST GROWTH FACTOR FRAGMENTS” (NOVARTIS AG, priority 2003, published 2013)
Several values for one entry are separate records, joined by “and”; a condition that tells them apart may be missing. Equal entries are not always repeated.

Key:
[1] = test system: transcript abundance in organs; assay: Salmon calcitonin/PTS893 monkey study: multiorgan gene expression profiling (HG-U95Av2 arrays); assay type: in vivo, cynomolgus monkeys (Macaca fascicularis); set-up: key: B = bone; K = kidney; M = muscle; P = pituitary; L = liver; T = trachea
Protocol: A set of tissues was selected for gene expression profiling. These set included samples from kidney, bone, muscle, duodenum, pituitary and liver.
HG-U95Av2 GeneChip® expression probe arrays (Affymetrix, Santa Clara Calif. USA) were used. […] Workstation 400 (Affymetrix).
Data analysis was performed with the Silicon Genetics software package GeneSpring version 4.2.1 and 5. Average difference values below 20 were set to 20.
The threshold range for considering as up or down regulation was determined within the context of the biological interpretation of the study.
Increase and decrease reported here refer to transcript abundance, unless specifically stated.

selected transcripts = assay: Salmon calcitonin/PTS893 monkey study: real-time PCR of selected transcripts; assay type: in vivo, cynomolgus monkeys (Macaca fascicularis); settings: normalized to β-actin
From the text: Based on the DNA microarray data a set of transcripts was chosen for quantitative analysis by real time-PCR(RT-PCR).
Briefly, the method exploits the SyBr Green dye which intercalates into double stranded DNA. Accumulation of PCR products is detected directly by monitoring the increase in fluorescence of the SyBr Green dye. Reactions are characterised by the point in time during cycling when amplification of a PCR product is first detected rather than the amount of PCR product accumulated after a fixed number of cycles. The higher the starting copy number of nucleic acid target, the sooner a significant increase in fluorescence is observed.
From each RNA sample, cDNA was made using an Applied Biosystem kit (Applied Biosystems # N808-0234) following the recommendation of the manufacturer. The PCR mixture was prepared using the SyBr Green Universal PCR Master Mix (Applied Biosystems #4309155) as follows: 5 μl cDNA template, 400 nM of each primer, 0.2 mM deoxynucleotide triphosphates, 1 mM MgC12 and 0.5 U Taq DNA polymerase, 5 μl SyBr Green PCR buffer and RNase free water up to a final volume of 50 μl. The PCR was performed using the ABI Prism 7700 Sequence Detection System, after a step at 95° C. for 10 min, the step-cycle program was performed for a total of 40 cycles as follows: 95° C. for 30 s, 60° C. for 1 min. A negative control was included: PCR reaction mixture with water in place of the cDNA sample.
The initial template concentration was determined based on the threshold cycle. […] Quantification was performed by calculating the unknown target concentration relative to an absolute standard and by normalizing to a validated endogenous control such as a housekeeping gene (β-actin). Results are presented as percentage of control, once the ratio between the numbers of molecule for the gene of interest divided by the number of molecule for beta-actin has been calculated.
Based on the DNA microarray data the following set of transcripts was chosen for quantitative analysis by RT-PCR: adhesion receptor CD44, angiopoietin, bone morphogenetic protein 5, carbonic anhydrase II, cartilage oligomeric matrix protein, cathepsin K, osteopontin, pre-pro-alpha-2 type I collagen, Spi-B and Y-box binding protein.

[2] = test system: Insulin-Like Growth Factor Binding Protein 2; assay: Serum determination of insulin-like growth factor binding protein 2 in FGF23CTP-treated monkeys; assay type: in vivo, cynomolgus monkey
Protocol: At the end of the treatment period samples from all organs are subjected to snap freezing at necropsy and are analyzed with GeneChip® expression profiling.
Serum levels were determined for IGFB2 and found to be decreased, in agreement with the decreased transcript levels in several organs, including the liver.

[3] = Routine clinical and biochemical observations in FGF23CTP-treated monkeys; assay type: in vivo, cynomolgus monkey; settings: 100 μg/day sc, two weeks
retinal neuronal layers = test system: retinal neuronal layers
Protocol: The total thickness of the outer nuclear layer, the inner nuclear layer and the ganglion cell layer is measured using a standardized magnification after paraffin embedding and hematoxylin and eosin (HE)-staining. Three sections of each eye are measured at three locations each. […] Sections are encoded for evaluation.

[4] = Effects on Osteoblasts, autocrine/paracrine regulation of osteoblast function
[5] = Effects on Osteoblasts, endocrine regulation of osteoblast function
[6] = Effects on Osteoclasts: bone resorption by osteoclast
[7] = Effects on Osteoclasts: osteoclast determination, survival and differentiation
[8] = Extracellular matrix, collagen synthesis
[9] = right eye (FGF23CTP), average of all measurements of three animals, x200 magnification

With “Leu8, Asp10, Lysll, A1a16, G1n18, Thr33, A1a34 human PTH 1-34 [PTS893, Leu8, Asp10, Lysll, A1a16, G1n18, Thr33, A1a34 human PTH 1-34 [hPTH(1-34)]]” the “Organs where changes in expression were seen: Cyclin-dependent kinases 5, 6, 10” value ([1]; Cell cycle) was “B”, the “Organs where changes in expression were seen: Cyclin-dependent kinases inhibitor 1A, 1C, 2D)” value ([1]; Cell cycle) was “B” and the “Organs where changes in expression were seen: Cyclins (A, A2, B1, C, D2, E2, G1, G2)” value ([1]; Cell cycle) was “B”. The “Organs where changes in expression were seen: Bone Morphogenetic Proteins” value [1, 4] was “B”, the “Organs where changes in expression were seen: Fibroblast Growth Factors” value [1, 4] was “B” and the “Organs where changes in expression were seen: Insulin-like Growth Factors” value [1, 4] was “B”. The “Organs where changes in expression were seen: TGFs” value [1, 4] was “B”, the “Organs where changes in expression were seen: Tob” value [1, 4] was “B” and the “Organs where changes in expression were seen: Activin” value [1, 5] was “B”. For the same molecule, the “Organs where changes in expression were seen: Retinoic receptor X” value [1, 5] was “B”, the “Organs where changes in expression were seen: Y-box binding protein” value ([1]; Effects on Osteoblasts, transcription factor that regulates collagen type 1 synthesis) was “B” and the “Organs where changes in expression were seen: H+ ATP-ases” value [1, 6] was “B”. For the same molecule, the “Organs where changes in expression were seen: ODF/OPGL: osteoprotegerin ligand” value [1, 6] was “B”, the “Organs where changes in expression were seen: Granulocyte to macrophage colony-stimulating factor (CSF1)” value [1, 7] was “B” and the “Organs where changes in expression were seen: Monocyte to macrophage differentiation associate (MMD)” value [1, 7] was “B”. The “Organs where changes in expression were seen: PU.1 (SPI1)” value [1, 7] was “B”, the “Organs where changes in expression were seen: Aggrecan” value ([1]; Extracellular matrix component) was “B” and the “Organs where changes in expression were seen: Chondroitin sulphate proteoglycan” value ([1]; Extracellular matrix component) was “B”. For the same molecule, the “Organs where changes in expression were seen: Dermatopontin” value ([1]; Extracellular matrix component) was “B”, the “Organs where changes in expression were seen: Heparan sulphate proteoglycan” value ([1]; Extracellular matrix component) was “B” and the “Organs where changes in expression were seen: Syndecan” value ([1]; Extracellular matrix component) was “B”. The “Organs where changes in expression were seen: Integrins” value ([1]; Extracellular matrix, cell attachment, signal transduction) was “B”, the “Organs where changes in expression were seen: Lysyl hydroxylase” value [1, 8] was “B” and the “Organs where changes in expression were seen: Procollagen endopeptidase/proteinase” value [1, 8] was “B”. For the same molecule, the “Organs where changes in expression were seen: Adenylate cyclase” value ([1]; Signal transduction) was “B”, the “Organs where changes in expression were seen: CREM” value ([1]; Signal transduction) was “B” and the “Organs where changes in expression were seen: Calcyclin binding protein” value ([1]; Signal transduction) was “B”. For the same molecule, the “Organs where changes in expression were seen: MAPK” value ([1]; Signal transduction) was “B”, the “Organs where changes in expression were seen: Phosphatidylinositol pathway” value ([1]; Signal transduction) was “B” and the “Organs where changes in expression were seen: Phosphodiesterase (IB, 4A, 4B)” value ([1]; Signal transduction) was “B”. The “Organs where changes in expression were seen: Phospholipase (C, D)” value ([1]; Signal transduction) was “B”, the “Organs where changes in expression were seen: SMAD pathway” value ([1]; Signal transduction) was “B” and the “Organs where changes in expression were seen: STAT pathway” value ([1]; Signal transduction) was “B”. For the same molecule, the “Organs where changes in expression were seen: Amelogenin (cement component)” value ([1]; cynomolgus monkey, in vivo) was “B”, the “Organs where changes in expression were seen: Dentin (mineral matrix protein)” value ([1]; cynomolgus monkey, in vivo) was “B” and the “Organs where changes in expression were seen: VEGF” value ([1]; cynomolgus monkey, in vivo) was “B”. The “Real Time PCR Treatment Effect: Y-box binding protein (bone) (36140_at)” value (selected transcripts; bone) was “+26 % respect to control”, the “Real Time PCR Treatment Effect: Spi-B (35883_at)” value (selected transcripts) was −18 % respect to control and the “Real Time PCR Treatment Effect: adhesion receptor CD44 (1372_at)” value (selected transcripts) was “No change”. The “Real Time PCR Treatment Effect: angiopoietin-1 (1929_at)” value (selected transcripts) was “No change”, the “Real Time PCR Treatment Effect: bone morphogenetic protein 5 (1831_at)” value (selected transcripts) was “+18 % respect to control” and the “Real Time PCR Treatment Effect: carbonic anhydrase II (40095_at)” value (selected transcripts) was “No change”. The “Real Time PCR Treatment Effect: cartilage oligomeric matrix protein (40161_at)” value (selected transcripts) was “No change”, the “Real Time PCR Treatment Effect: cathepsin K (128_at)” value (selected transcripts) was “No change” and the “Real Time PCR Treatment Effect: osteopontin (2092_s_at)” value (selected transcripts) was “No change”. The “Real Time PCR Treatment Effect: pre-pro-alpha-2 type I collagen (32306_g_at)” value (selected transcripts) was “+62 % respect to control”.

B1: FGF23CTP: unique 75-mer COOH-terminal peptide of FGF-23, SEQ ID NO: 2 (peptide, listed as Homo sapiens)
chain: HTRSAEDDSERDPLNVLKPRARMTPAPASCSQELPSAEDNSPMASDPLGVVRGGRVNTHAGGTGPEGCRPFAKFI
With B1 the “Serum Insulin-Like Growth Factor Binding Protein 2, mean” value ([2]; 100 μg/day) was 893 ng/mL, the “Serum Insulin-Like Growth Factor Binding Protein 2, conc” value ([2]; individual animals, 100 μg/day) was 987.6 ng/mL and 596.7 ng/mL and 749.5 ng/mL and 1239.8 ng/mL and the “Serum protein levels of circulating IGF2-binding protein” value ([2]; treated animals, two weeks sc) was “decreased”. For the same molecule, the “Effect on phosphate metabolism” value [3] was “no effect”, the “Routine clinical or biochemical changes” value [3] was “No routine clinical or biochemical changes” and the “Thickness of the inner nuclear layer, outer nuclear layer, ganglion cell layer vs PBS” value (retinal neuronal layers; five days after injection) was “no marked difference”. For the same molecule, the “Ganglion cell layer thickness, average” value (retinal neuronal layers; [9]) was 2.25 mm, the “Inner nuclear layer thickness, average” value (retinal neuronal layers; [9]) was 6 mm and the “Outer nuclear layer thickness, average” value (retinal neuronal layers; [9]) was 10.63 mm. The “Neuronal damage in the eye” value (retinal neuronal layers; three animals, five days after injection) was “not to induce any neuronal damage”.
